Assay results: PubChem BioAssay (NCI)
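Tested at 5 concentrations; 48 h exposure; 96-well plates; endpoints linearly interpolated, else capped at highest concentration. GI50: concentration for 50% inhibition of growth. At the TGI there is no net growth.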

Tests used:
Experiment in all cases: DTP human tumour cell line panel, 48 h
SN12C renal = test system: SN12C renal
OVCAR-5 ovarian = test system: OVCAR-5 ovarian
MDA-MB-231 breast = test system: MDA-MB-231 breast
IGROV1 ovarian = test system: IGROV1 ovarian
HOP-62 NSCLC = test system: HOP-62 NSCLC
RXF 393 renal = test system: RXF 393 renal
T-47D breast = test system: T-47D breast
786-0 renal = test system: 786-0 renal
KM12 colon = test system: KM12 colon
SK-MEL-2 melanoma = test system: SK-MEL-2 melanoma
UACC-62 melanoma = test system: UACC-62 melanoma
ACHN renal = test system: ACHN renal
A498 renal = test system: A498 renal
SF-539 CNS = test system: SF-539 CNS
COLO 205 colon = test system: COLO 205 colon
A549 NSCLC = test system: A549 NSCLC
MDA-MB-468 breast = test system: MDA-MB-468 breast
HL-60(TB) leukemia = test system: HL-60(TB) leukemia
EKVX NSCLC = test system: EKVX NSCLC
HS 578T breast = test system: HS 578T breast
SR leukemia = test system: SR leukemia
K-562 leukemia = test system: K-562 leukemia
HCC-2998 colon = test system: HCC-2998 colon
MOLT-4 leukemia = test system: MOLT-4 leukemia
MALME-3M melanoma = test system: MALME-3M melanoma
SK-MEL-28 melanoma = test system: SK-MEL-28 melanoma
SNB-75 CNS = test system: SNB-75 CNS
UO-31 renal = test system: UO-31 renal
NCI-H460 lung = test system: NCI-H460 lung
SNB-19 CNS = test system: SNB-19 CNS
CCRF-CEM leukemia = test system: CCRF-CEM leukemia
SF-295 CNS = test system: SF-295 CNS
SW-620 colon = test system: SW-620 colon
CAKI-1 renal = test system: CAKI-1 renal
HCT-15 colon = test system: HCT-15 colon
HCT-116 colon = test system: HCT-116 colon
BT-549 breast = test system: BT-549 breast
MDA-MB-435 = test system: MDA-MB-435
DU-145 prostate = test system: DU-145 prostate
TK-10 renal = test system: TK-10 renal
NCI-H522 lung = test system: NCI-H522 lung
M14 melanoma = test system: M14 melanoma
UACC-257 melanoma = test system: UACC-257 melanoma
SF-268 CNS = test system: SF-268 CNS
SK-OV-3 ovarian = test system: SK-OV-3 ovarian
PC-3 prostate = test system: PC-3 prostate
HOP-92 NSCLC = test system: HOP-92 NSCLC
U251 CNS = test system: U251 CNS
OVCAR-3 ovarian = test system: OVCAR-3 ovarian
NCI-H23 lung = test system: NCI-H23 lung
OVCAR-8 ovarian = test system: OVCAR-8 ovarian
SK-MEL-5 melanoma = test system: SK-MEL-5 melanoma
HT29 colon = test system: HT29 colon
OVCAR-4 ovarian = test system: OVCAR-4 ovarian
MCF7 breast = test system: MCF7 breast

`COc1cc(C2CC(c3ccc(C(F)(F)F)cc3)=Nc3c(N)nc(N)nc3N2)ccc1Oc1nc(Nc2ccc(F)cc2)nc(N(C)C)n1` (stereo not given) was tested, and the GI50 (SN12C renal) was 6.09 µM, the TGI (SN12C renal) was 46.6 µM and the GI50 (OVCAR-5 ovarian) was 35.2 µM. For the same molecule, the TGI (OVCAR-5 ovarian) was > 100 µM, the GI50 (MDA-MB-231 breast) was 2.29 µM and the TGI (MDA-MB-231 breast) was 8.39 µM. The GI50 (IGROV1 ovarian) was 5 µM, the TGI (IGROV1 ovarian) was > 100 µM and the GI50 (HOP-62 NSCLC) was 17.8 µM. For the same molecule, the TGI (HOP-62 NSCLC) was 74.6 µM, the GI50 (RXF 393 renal) was 1.22 µM and the TGI (RXF 393 renal) was 5.54 µM. For the same molecule, the GI50 (T-47D breast) was 19 µM, the TGI (T-47D breast) was > 100 µM and the GI50 (786-0 renal) was 4 µM. For the same molecule, the TGI (786-0 renal) was 16.6 µM, the GI50 (KM12 colon) was 3.05 µM and the TGI (KM12 colon) was 11.7 µM. It also gave a GI50 (SK-MEL-2 melanoma) of 2.94 µM, a TGI (SK-MEL-2 melanoma) of 11.7 µM and a GI50 (UACC-62 melanoma) of 13.1 µM. The TGI (UACC-62 melanoma) was 31.2 µM, the GI50 (ACHN renal) was 6.05 µM and the TGI (ACHN renal) was > 100 µM. It also gave a GI50 (A498 renal) of 17 µM, a TGI (A498 renal) of 89.9 µM and a GI50 (SF-539 CNS) of 6.1 µM. The TGI (SF-539 CNS) was 22.1 µM, the GI50 (COLO 205 colon) was 3.09 µM and the TGI (COLO 205 colon) was 14.7 µM. The GI50 (A549 NSCLC) was 4.78 µM, the TGI (A549 NSCLC) was > 100 µM and the GI50 (MDA-MB-468 breast) was 2.4 µM. It also gave a TGI (MDA-MB-468 breast) of 7.79 µM, a GI50 (HL-60(TB) leukemia) of 2.35 µM and a TGI (HL-60(TB) leukemia) of 47.3 µM. For the same molecule, the GI50 (EKVX NSCLC) was 4.23 µM, the TGI (EKVX NSCLC) was > 100 µM and the GI50 (HS 578T breast) was 4.77 µM. The TGI (HS 578T breast) was 96.2 µM, the GI50 (SR leukemia) was 1.89 µM and the TGI (SR leukemia) was 5.9 µM. For the same molecule, the GI50 (K-562 leukemia) was 1.85 µM, the TGI (K-562 leukemia) was > 100 µM and the GI50 (HCC-2998 colon) was 2.26 µM. The TGI (HCC-2998 colon) was 5.69 µM, the GI50 (MOLT-4 leukemia) was 1.71 µM and the TGI (MOLT-4 leukemia) was > 100 µM. It also gave a GI50 (MALME-3M melanoma) of 2.84 µM, a TGI (MALME-3M melanoma) of 14.2 µM and a GI50 (SK-MEL-28 melanoma) of 28.1 µM. For the same molecule, the TGI (SK-MEL-28 melanoma) was > 100 µM, the GI50 (SNB-75 CNS) was 2.17 µM and the TGI (SNB-75 CNS) was > 100 µM. For the same molecule, the GI50 (UO-31 renal) was 3.66 µM, the TGI (UO-31 renal) was > 100 µM and the GI50 (NCI-H460 lung) was 2.61 µM. The TGI (NCI-H460 lung) was 7.19 µM, the GI50 (SNB-19 CNS) was 9.14 µM and the TGI (SNB-19 CNS) was > 100 µM. For the same molecule, the GI50 (CCRF-CEM leukemia) was 3.32 µM, the TGI (CCRF-CEM leukemia) was > 100 µM and the GI50 (SF-295 CNS) was 7.12 µM. It also gave a TGI (SF-295 CNS) of 62.1 µM, a GI50 (SW-620 colon) of 5.59 µM and a TGI (SW-620 colon) of 75.2 µM. The GI50 (CAKI-1 renal) was 1.65 µM, the TGI (CAKI-1 renal) was > 100 µM and the GI50 (HCT-15 colon) was 3.4 µM. For the same molecule, the TGI (HCT-15 colon) was 14.6 µM, the GI50 (HCT-116 colon) was 1.76 µM and the TGI (HCT-116 colon) was 3.65 µM. The GI50 (BT-549 breast) was 4.41 µM, the TGI (BT-549 breast) was 21 µM and the GI50 (MDA-MB-435) was 4.59 µM. The TGI (MDA-MB-435) was 23.5 µM, the GI50 (DU-145 prostate) was 4.9 µM and the TGI (DU-145 prostate) was > 100 µM. For the same molecule, the GI50 (TK-10 renal) was 18 µM, the TGI (TK-10 renal) was 71 µM and the GI50 (NCI-H522 lung) was 4.75 µM. The TGI (NCI-H522 lung) was 23.3 µM, the GI50 (M14 melanoma) was 4.41 µM and the TGI (M14 melanoma) was 50.7 µM. It also gave a GI50 (UACC-257 melanoma) of 14.1 µM, a TGI (UACC-257 melanoma) of 76.5 µM and a GI50 (SF-268 CNS) of 6.14 µM. The TGI (SF-268 CNS) was > 100 µM, the GI50 (SK-OV-3 ovarian) was 63.5 µM and the TGI (SK-OV-3 ovarian) was > 100 µM. For the same molecule, the GI50 (PC-3 prostate) was 3.2 µM, the TGI (PC-3 prostate) was > 100 µM and the GI50 (HOP-92 NSCLC) was 2.1 µM. The TGI (HOP-92 NSCLC) was 9.46 µM, the GI50 (U251 CNS) was 4.63 µM and the TGI (U251 CNS) was 21.1 µM. The GI50 (OVCAR-3 ovarian) was 5.46 µM, the TGI (OVCAR-3 ovarian) was 21.9 µM and the GI50 (NCI-H23 lung) was 16.9 µM. For the same molecule, the TGI (NCI-H23 lung) was 74.9 µM, the GI50 (OVCAR-8 ovarian) was 5.48 µM and the TGI (OVCAR-8 ovarian) was > 100 µM. For the same molecule, the GI50 (SK-MEL-5 melanoma) was 3.32 µM, the TGI (SK-MEL-5 melanoma) was 12.8 µM and the GI50 (HT29 colon) was 2.23 µM. The TGI (HT29 colon) was 5.86 µM, the GI50 (OVCAR-4 ovarian) was 3.92 µM and the TGI (OVCAR-4 ovarian) was 33.1 µM. It also gave a GI50 (MCF7 breast) of 2.66 µM and a TGI (MCF7 breast) of 10.7 µM.
